Results taken from a melting point compilation (Tetko et al.; mined from patent text by program, amines drawn as free bases though some values may be those of a salt).

SMILES	melting point
O=C1NC(=O)C(Cc2ccc3nc(Cc4ccc(Cl)cc4)oc3c2)S1 (stereo not drawn)	220 °C
CC1CC(=O)Oc2cc(O)ccc21 (stereo not drawn)	109 to 110 °C
COc1ccc(NC(C)=S)cc1C	88.5 to 89 °C
CCSc1ccc(SCC)c(C#N)n1	63 to 64 °C
CCOC(=O)Cc1ccc(-c2nc(COc3ccc(COc4nn(-c5ccccc5)cc4/C=C/c4coc(C(C)C)n4)cc3OC)c(C)o2)cc1	106 to 108 °C
O=C1CCC[C@@H](c2ccc(Cl)cc2)N1c1ccccc1	77.5 to 80 °C
O=C1Nc2ccccc2C12CCCCC2	164 to 165 °C
CC(Cc1ccccc1)(NC=O)c1ccccc1 (stereo not drawn)	97 to 99 °C
COC(=O)c1ccc(C#N)c(OC)n1	125 °C
c1ccc(C(c2ccc3[nH]nnc3c2)n2cncn2)cc1 (stereo not drawn)	183 °C
O=C(Nc1ccc(C(F)(F)F)cc1)O[C@H]1COC(c2ccccc2)=N[C@@H]1c1ccccc1 (racemic)	140 °C
CC(C)C(NC(=O)N(C)Cc1ccccn1)C(=O)N(C(=O)C(NC(=O)N(C)Cc1nccs1)C(C)C)C(Cc1ccccc1)CC(O)CCc1ccccc1 (stereo not drawn)	156 to 158 °C
CCOC(=O)Nc1cn2nc(OCc3cc(OC)ccc3OC)ccc2n1	210 to 211 °C
O=C1CCCc2snc(Cl)c21	84 to 85 °C
COc1cccc(CNc2nc(SCc3ccccc3)nc3nc[nH]c23)c1O	193 to 194 °C
CC1(C)CC2(CC(C)(C)N1)OC1(CCCCCCCCCCC1)NC2=O	97 °C
CSc1ccc([N+](=O)[O-])nc1	165 to 167 °C
COc1ccc(-c2cc(-c3nc(C)cs3)c(=O)n(C)c2-c2ccnnc2)cc1	271 °C
CC(C)N=c1[nH]c2ccc(Cl)cc2c2nc(-c3ccco3)nn12	140 to 141 °C
CCOC(=O)C1=Cc2cc(Cl)cc(-c3nc4ccccc4[nH]3)c2OC1C(F)(F)F (stereo not drawn)	> 300 °C
Nc1nc(NCCc2ccccc2)nc(-c2cc(Cl)ccc2Cl)n1	217 to 218 °C
CCOC(=O)C1[C@@H]2[C@@H](O)[C@@H]3O[C@H](c4ccc(OC)cc4)OC[C@H]3O[C@H]12 (stereo partly drawn)	118 to 120 °C
O=c1[nH]c2ccncc2c2nc(-c3ccco3)nn12	312 to 313 °C
CCCCCCCCCCCCS(=O)(=O)c1ccccc1[N+](=O)[O-]	47 to 48 °C

SMILES	melting point
O=C1NCCn2c1cc1c2CCCC1	207 to 209 °C
CCOC(=O)C(C#N)=NC=C(N)c1ccccc1	139 to 140 °C
CC1(C)N=C(S)N=C(N)N1	186 to 188 °C
CCCN(CCC)C1Cc2c[nH]c3ccc(C(C)=O)c(c23)C1 (stereo not drawn)	148 to 150 °C
CCCCC(CC)CNC(=O)c1cc(C(C)(C)C)c(O)c(C(C)(C)C)c1 (stereo not drawn)	136 to 140 °C
CC1(COC(=O)N2CC=C(c3ccc(C(F)(F)F)cc3)CC2)Cn2cc([N+](=O)[O-])nc2O1 (stereo not drawn)	113 to 115 °C
N#Cc1cc2cccnc2nc1O	300 °C
CC1CC(=O)NN=C1c1ccc(NC(=O)CCNCC(O)C(Cc2ccccc2)Oc2ccc(CCOCC3CC3)cc2)cc1 (stereo not drawn)	125 to 128 °C
CNCCOc1ccc(C(=C(c2ccccc2)C(F)(F)F)c2ccc(OCOC)cc2)cc1	87 to 90 °C
C#Cc1ccc(Nc2c(C(=O)c3nccs3)ccc(F)c2F)c(F)c1	161 °C
CCCOC(C)c1ccc(OCc2ccccc2)cc1 (single isomer, unassigned; (+))	51 to 53 °C
O=[N+]([O-])c1ccc(Nc2nc(Cl)nc3nc[nH]c23)cc1	> 270 °C
CCOC(=O)CC(C)Nc1ccc(OC)c(OC)c1 (stereo not drawn)	59 to 60 °C
COc1ccc(C2(C#Cc3ccncc3)CCC(=O)CC2)cc1OC1CCCC1	88 to 89 °C
CCOC(=O)c1c(-c2ccc(CBr)cc2)nc2ccccn12	131 °C
CC(C)Oc1ccc(C[C@H](NC(=O)[C@@H]2CCCCN2S(=O)(=O)c2cccc(C(F)(F)F)c2)C(=O)NC2CCOCC2)cc1	78.6 °C
CO/N=C(\C)c1ccc(Nc2c3ccccc3nc3occc23)cc1	167 to 168 °C
Cc1cc(=O)c(O)co1	152 to 153 °C
O=C(Nc1nc(C(Cl)(Cl)Cl)ns1)c1ccccc1	190 °C
CC(C)c1nn(C(=O)NC2CCCC2)c(=O)n1N	109 °C
CCc1nc2c(N)nc3c(c2n1CCCCS(=O)(=O)NC)CCCC3	166 to 170 °C
CCCNC(=O)C1(CCCCc2ccc(N3Cc4ccccc4C3=O)cc2)c2ccccc2-c2ccccc21	147 to 148 °C
O=[N+]([O-])c1ccc2c(c1)C=CCCO2	94 to 95.5 °C

Further lines, results first:

melting point	SMILES
106 to 108 °C	COC(=O)c1ccccc1NC(=O)OCC1CCN(CCNS(C)(=O)=O)CC1
228 to 230 °C	COc1cccc(-n2c(N3CCNCC3)c(C(=O)N3CCN(C)CC3)c3ccccc32)c1
148 to 150 °C	COC(=O)C1=C(C)NC(CF)=C(C(=O)OC)C1c1c(F)c(F)c(F)c(F)c1F (stereo not drawn)
152 °C	CSc1ccc2c(c1)C(=O)C(C)(C)C(=O)N2
141 to 143 °C	C=Cc1ccc(OC)cc1C1C(C(=O)OC)=C(C)NC(C)=C1C(=O)OC
235 to 238 °C	CS(=O)(=O)c1cccc(NC(=O)c2cnn3c(C4CC4)cc(-c4ccc(Cl)cc4)nc23)c1
147 °C	CN1CCN(S(=O)(=O)c2cccc(NC(=O)c3cnn4c(C(F)F)cc(-c5ccc(Cl)cc5)nc34)c2)CC1
119 to 120 °C	CC(C)c1cccc(C(C)C)c1NC(=O)CN1CCN(CCSc2nc3cccc(S(C)=O)c3o2)CC1 (stereo not drawn)
130 to 131 °C	CCOC(=O)O[C@H](CCCc1ccc(OCc2nc(-c3ccccc3)sc2C)cc1)C(N)=O
266 to 268 °C	CCOC(=O)c1nnc2c3ccc(Cl)cc3c(-c3ccccc3)nn12
117 to 119 °C	O=C(O)C1CSC(c2cccc(OCCO[N+](=O)[O-])c2)N1 (stereo not drawn)
192 °C	CN1C(=O)N(c2ccccc2O)Cc2cnc(Nc3ccccc3)nc21
192 to 193 °C	COCc1cc(-c2cc3c(cc2F)c(=O)c(C(=O)O)cn3C2CC2)cc(C)n1
275 to 283 °C	NC(=O)c1sc2nccc(N3CCCC3)c2c1N
249 to 250 °C	NC1CCN(c2nc(Nc3ccc(F)cc3F)c(C(=O)O)cc2F)C1 (stereo not drawn)
141 °C	CC(C)(Oc1ccc(C2CCOCC2)cc1Cl)C(=O)O
211 to 213 °C	CN(C)c1ccc(NC(=O)NC2CCCC2)c(C(=O)NCC2CCN(C(c3ccccc3)c3ccccc3)CC2)c1
> 350 °C	Cc1ccc2[nH]c(=O)n3c(=O)[nH]nc3c2c1C
188 to 190 °C	COC(=O)Cn1c(=O)c(-c2c(Cl)cccc2Cl)cc2cnc(N)nc21
205 to 206 °C	O=C(O)c1c(I)c(I)c(C(=O)O)c(I)c1I
233 °C	COC(=O)c1ccc(C(=O)NS(=O)(=O)c2ccc(CCNC(=O)c3cc(Cl)ccc3OC)cc2)cn1
138 to 143 °C	O=C(O)CN(CC(=O)O)Cc1cc(S(=O)(=O)c2ccc(OCc3ccccc3)cc2)cc(CN(CC(=O)O)CC(=O)O)c1O
91.5 to 94 °C	COC(=O)CCCCCOc1ccc(NC(=O)CO)cc1
130 to 135 °C	CC(C)N1CCN(C(=O)OC2C3=C(SCCS3)C(=O)N2c2ccc(Cl)cn2)CC1 (stereo not drawn)
94 to 96 °C	COCCOc1cc(N(C)S(=O)(=O)c2ccccn2)c2[nH]c(C3=NCC(CC(=O)N(C)CCO)S3)cc2c1 (stereo not drawn)
106 to 109 °C	CCOC(C(=O)O)c1ccc2c(c1)C(C)(C)CCC2(C)C (racemic)

melting point	SMILES
119 to 122 °C	Nc1nc2c(s1)CC(NC(=O)CNC(=O)[C@@H](Cc1ccccc1)NS(=O)(=O)Cc1ccccc1)CC2 (stereo partly drawn)
53 to 55 °C	CCOC(=O)c1c(C(F)(F)F)nc(C(F)F)c(C(=O)OC)c1NC(C)C
205 to 207 °C	COC(=O)c1ccc(OC)c2oc3ccnc(O)c3c12
61 to 62 °C	CC(Cl)(Cl)C(=O)N1CCCC1C(=O)O (stereo not drawn)
101 to 104 °C	O=C(O)CSCc1ccc([N+](=O)[O-])cc1
148 to 149 °C	CC(=O)Oc1ccc(-c2c(C)c3ccc(F)cc3oc2=O)c(OC(C)=O)c1
78 to 79 °C	[N-]=[N+]=NCCCC(=O)N1CCc2c(OC(CO)CO)ccc([N+](=O)[O-])c21
117 to 119 °C	CCCc1c(OCC(O)COc2cccc(NC(=O)c3nnn[nH]3)c2C#N)ccc(C(C)=O)c1O (stereo not drawn)
199 to 201 °C	CC(=O)C1=C(O)C(=C(C)Nc2ccc(F)cc2)C(=O)OC1=O
98 to 101 °C	COc1ccc(C(=O)N2CCN(c3ccc(N)c(CCC(=O)O)c3)CC2)cc1OC
74 to 75 °C	COC(=O)C(C)Oc1ncn(-c2ccc(Cl)cc2Cl)n1 (stereo not drawn)
151 to 152 °C	O=C1NC(=O)C(c2ccccc2)(c2ccccc2)N2CCN(C(=O)OCc3ccccc3)CC12 (stereo not drawn)
174 to 175 °C	CCCCCCC(C(=O)OCC)c1ccc(NC(=O)C2c3ccccc3-c3ccccc32)cc1 (stereo not drawn)
70 to 71 °C	CC(C)[C@H](NC(=O)N(C)Cc1csc(C2CCCC2)n1)C(=O)N[C@@H](Cc1ccccc1)C[C@H](O)[C@H](Cc1ccccc1)NC(=O)OCc1cncs1
162 to 164 °C	C[Si](C)(C)c1cccc(I)c1C(=O)NC1CC1
270 to 274 °C	O=C(O)c1ccc(NC(=O)[C@H](Cc2ccc(-c3ccccc3)cc2)NCP(=O)(O)O)cc1
128 to 131 °C	CCCCCCCc1ccc(C(=O)Cc2ccccc2C(=O)O)cc1
96 to 98 °C	CCCNC(=O)Cc1cnc2cccc(C)n2c1=O
140 to 144 °C	CNC(=O)CC(SC(=O)c1ccccc1)C(CC(C)C)C(=O)NC(Cc1ccc(OC)cc1)C(=O)NC (stereo not drawn)
157 to 160 °C	Cc1c(-c2ccncc2)oc2c1C(=O)OC(C)C2 (stereo not drawn)
205 to 207 °C	Cc1c(CC(=O)O)c2ccccc2n1-c1cc(Cl)nc(Cl)n1
154 to 155 °C	Cc1cccc(C(O)COc2ccc(CC3SC(=O)NC3=O)cc2)n1 (stereo not drawn)
75 to 79 °C	C[C@@H](O)c1cc2cc(CN3CCOCC3)cc3c(=O)c(C(=O)NCc4ccc(Cl)cc4)cn1c23
98 to 103 °C	CCOc1ccc2nc(NC(=O)CN3CCN(C(=O)CCCCCCC(=O)N(O)C(C)=O)CC3)sc2c1
152 to 154 °C	CON1CCC2(CC1)C(O)=C(c1c(C)cc(C)cc1C)C(=O)N2O
